Activity calls are given as the source filed them. The rule behind the calls is not given here.
Experiments:
Staphylococcus aureus [1] = assay: Bactericidal activity against late exponential phase Staphylococcus aureus assessed as bacterial elimination at 8 ug/ml incubated for 6 to 8 hrs by time-kill assay; assay type: functional; conditions: dose 8 µg/ml; time 6-8 hrs
Escherichia coli [2] = assay: Bactericidal activity against early exponential phase Escherichia coli assessed as bacterial killing at 3 ug/ml incubated for 12 hrs by time-kill assay; assay type: functional, organism-based; conditions: dose 3.0 µg/ml
[3] = Selectivity index, ratio of HC50 for sheep red blood cells to MIC for Staphylococcus aureus; assay type: toxicity, cell-based, RBC; conditions: read-out: Selectivity Index
[4] = Toxicity in female SPF Kunming mouse assessed as survival rate at 200 mg/kg/day, sc measured after 24 hrs; assay type: organism-based; conditions: in vivo
Staphylococcus aureus [5] = assay: Anti-biofilim activity against Staphylococcus aureus biofilm assessed bio-film thickness at 32 ug/ml measured after 24 hrs incubation by SYTO 9 staining based […] laser scanning microscopy (CLSM) (reference value: 29.5 microm); assay type: functional; conditions: dose 32 µg/ml
Staphylococcus aureus [6] = assay: Anti-microbial activity against Staphylococcus aureus assessed as bacterial growth inhibition in presence of PE (exogenous bacterial cell membrane component) measured after 18 hrs; assay type: functional, organism-based
Staphylococcus aureus [7] = assay: Antibacterial activity against methicillin-resistant Staphylococcus aureus assessed as inhibition of bacterial growth measured after 6 hrs in presence of plasma; assay type: functional, organism-based
[8] = Toxicity in female SPF Kunming mouse assessed as change in HBG count at 20 mg/kg/day, ip measured after 24 hrs; assay type: organism-based; conditions: in vivo
[9] = Cytotoxicity against human Gastric mucosal cells measured assessed as cell morphology at 32 ug/ml measured after 24 hrs by Electron scanning microscopy; assay type: toxicity, cell-based; conditions: dose 32 µg/ml
Cell membrane [10] = assay: Induction of membrane damage in Staphylococcus aureus assessed as nucleic acid leakage measured at 0.5 to 2 times of MIC by microplate spectrophotometry; assay type: subcellular; conditions: TDE = time-dependent effect
[11] = Toxicity in female SPF Kunming mouse assessed as change in HCT count at 20 mg/kg/day, ip measured after 24 hrs; assay type: organism-based; conditions: in vivo
Staphylococcus aureus [12] = assay: Bactericidal activity against early exponential phase Staphylococcus aureus assessed as bacterial killing at 3 ug/ml incubated for 4 hrs by time-kill assay; assay type: functional, organism-based; conditions: dose 3.0 µg/ml
Escherichia coli [13] = assay: Antimicrobial activity against Escherichia coli assessed as inhibition of growth incubated for 18 hrs by CLSI guidelines based assay; assay type: functional
Staphylococcus aureus [14] = assay: Anti-microbial activity against Staphylococcus aureus assessed as bacterial growth inhibition in presence of 0.5 to […] ug/ml PG (exogenous bacterial cell membrane component) measured after 18 hrs; assay type: functional, organism-based
Cell membrane [15] = assay: Induction of membrane damage in Escherichia coli assessed as nucleic acid leakage measured at 0.5 to 2 times of MIC by microplate spectrophotometry; assay type: subcellular; conditions: TDE = time-dependent effect
Staphylococcus aureus [16] = assay: Antibacterial activity against methicillin-resistant Staphylococcus aureus assessed as inhibition of bacterial growth incubated for 18 hrs by CLSI guidelines based assay; assay type: functional
Staphylococcus aureus [17] = assay: Down-regulation of aspartate/ornithine carbamoyltransferase in Staphylococcus aureus at 0.25 ug/ml and incubated for 4 hrs by Transcriptome analysis; assay type: functional, organism-based; conditions: dose 0.25 µg/ml
Staphylococcus aureus [18] = assay: Up-regulation of riboflavin metabolic pathway genes in Staphylococcus aureus at 0.25 ug/ml and incubated for 4 hrs by Transcriptome analysis; assay type: functional, organism-based; conditions: dose 0.25 µg/ml
Staphylococcus aureus [19] = assay: Anti-biofilim activity against Staphylococcus aureus biofilm assessed bacterial survival rate at 16 ug/ml measured after 24 hrs incubation; assay type: functional
Staphylococcus aureus [20] = assay: Anti-biofilim activity against Staphylococcus aureus biofilm assessed bacterial survival rate at 8 ug/ml measured after 24 hrs incubation; assay type: functional
Staphylococcus aureus [21] = assay: Bactericidal activity against Staphylococcus aureus assessed as bacterial killing in presence of 50% plasma; assay type: functional, organism-based
[22] = Toxicity in female SPF Kunming mouse assessed as pathological changes in liver at 200 mg/kg/day, sc measured after 24 hrs by hematoxylin and eosin staining based assay; assay type: organism-based; conditions: in vivo
Staphylococcus aureus [23] = assay: Resistance development in Staphylococcus aureus assessed as increase in MIC measured within 20 passages of continues culture; assay type: functional
Staphylococcus aureus [24] = assay: Antibacterial activity against methicillin-resistant Staphylococcus aureus assessed as inhibition of bacterial growth measured after 3 hrs in presence of plasma; assay type: functional, organism-based
Staphylococcus aureus [25] = assay: In vivo antibacterial activity against methicillin-resistant Staphylococcus aureus subcutaneously infected in SPF female Kunming mouse model assessed as reduction wound at 5 mg/kg/day injected into blister after 6 hrs of infection measured after 6 consecutive treatments; assay type: functional
[26] = Toxicity in female SPF Kunming mouse assessed as change in RBC count at 20 mg/kg/day, ip measured after 24 hrs; assay type: organism-based; conditions: in vivo
Staphylococcus aureus [27] = assay: Antibacterial activity against methicillin-resistant Staphylococcus aureus assessed as inhibition of bacterial growth measured immediately after addition in presence of plasma; assay type: functional, organism-based
Staphylococcus aureus [28] = assay: Anti-bacterial activity against 100 times rifampicin induced persistent cells of Staphylococcus aureus assessed as reduction in persistent cells at 32 times of MIC; assay type: functional
[29] = Toxicity in female SPF Kunming mouse assessed as change in UREA level at 20 mg/kg/day, ip measured after 24 hrs; assay type: organism-based; conditions: in vivo
Staphylococcus aureus [30] = assay: Antimicrobial activity against Staphylococcus aureus assessed as inhibition of growth incubated for 18 hrs by CLSI guidelines based assay; assay type: functional
Enterococcus faecalis = assay: Antimicrobial activity against Enterococcus faecalis assessed as inhibition of growth incubated for 18 hrs by CLSI guidelines based assay; assay type: functional
Staphylococcus aureus [31] = assay: Anti-microbial activity against Staphylococcus aureus assessed as bacterial growth inhibition in presence of CL (exogenous bacterial cell membrane component) measured after 18 hrs; assay type: functional, organism-based
[32] = Toxicity in female SPF Kunming mouse assessed as change in MCV count at 20 mg/kg/day, ip measured after 24 hrs; assay type: organism-based; conditions: in vivo
Staphylococcus aureus [33] = assay: Down-regulation of pyrimidine metabolic pathway genes in Staphylococcus aureus at 0.25 ug/ml and incubated for 4 hrs by Transcriptome analysis; assay type: functional, organism-based; conditions: dose 0.25 µg/ml
Staphylococcus aureus [34] = assay: Induction of ROS level in Staphylococcus aureus assessed as increase in intracellular ROS level by measuring fold increase in fluorescent intensity at 0.5 ug/ml measured after 4.5 hrs by ROS-sensitive fluorescent probe DCF-DA staining based assay; assay type: functional; conditions: dose 0.5 µg/ml
Staphylococcus aureus [35] = assay: Bactericidal activity against Staphylococcus aureus assessed as bacterial killing in presence of 50% serum; assay type: functional, organism-based
Staphylococcus aureus [36] = assay: Induction of ROS level in Staphylococcus aureus assessed as increase in intracellular ROS level at 0.125 to 0.5 ug/ml measured after 4.5 hrs by ROS-sensitive fluorescent probe DCF-DA staining based assay; assay type: functional, organism-based; conditions: dose 0.125-0.5 µg/ml
Staphylococcus aureus [37] = assay: Up-regulation of quorum sensing pathway genes in Staphylococcus aureus at 0.25 ug/ml and incubated for 4 hrs by Transcriptome analysis; assay type: functional, organism-based; conditions: dose 0.25 µg/ml
[38] = tested on: Stenotrophomonas maltophilia; assay: Antimicrobial activity against Stenotrophomonas maltophilia assessed as inhibition of growth incubated for 18 hrs by CLSI guidelines based assay; assay type: functional
[39] = Toxicity in female SPF Kunming mouse assessed as change in ALB level at 20 mg/kg/day, ip measured after 24 hrs; assay type: organism-based; conditions: in vivo
[40] = Toxicity in female SPF Kunming mouse assessed as change in PLT count at 20 mg/kg/day, ip measured after 24 hrs; assay type: organism-based; conditions: in vivo
Escherichia coli [41] = assay: Resistance development in Escherichia coli assessed as increase in MIC measured within 20 passages of continues culture; assay type: functional
Staphylococcus aureus [42] = assay: Down-regulation of pyridoxal-phosphate-dependent enzyme in Staphylococcus aureus at 0.25 ug/ml and incubated for 4 hrs by Transcriptome analysis; assay type: functional, organism-based; conditions: dose 0.25 µg/ml

Compound: CCCCCCCC[N+](C)(C)CCCCOc1cc(OCCCC[N+](C)(C)CCCCCCCC)cc(OCCCC[N+](C)(C)CCCCCCCC)c1.[Br-].[Br-].[Br-]
- Activity (Staphylococcus aureus [1]): 100%
- Activity (Escherichia coli [2]): Active
- selectivity ratio [3]: > 2560
- survival at 24 h [4]: 100%
- Activity (Staphylococcus aureus [5]): 14.7 um
- Activity (Staphylococcus aureus [6]): Active
- Activity (Staphylococcus aureus [7]): Active
- Activity [8]: Non-Toxic
- Activity [9]: Non-Toxic
- Activity (Cell membrane [10]): Tde
- Activity [11]: Non-Toxic
- Activity (Staphylococcus aureus [12]): Active
- MIC (Escherichia coli [13]): 2 µg/mL
- Activity (Staphylococcus aureus [14]): inactive
- Activity (Cell membrane [15]): Tde
- MIC50 (Staphylococcus aureus [16]): 1 µg/mL
- MIC90 (Staphylococcus aureus [16]): ≥ 16 µg/mL
- Activity (Staphylococcus aureus [17]): Active
- Activity (Staphylococcus aureus [18]): Active
- survival at 16 µg/mL (Staphylococcus aureus [19]): 0.01%
- survival at 8 µg/mL (Staphylococcus aureus [20]): 0.61%
- Activity (Staphylococcus aureus [21]): Active
- Activity [22]: Non-Toxic
- MIC (Staphylococcus aureus [23]): 0.5 µg/mL
- Activity (Staphylococcus aureus [24]): Active
- Activity (Staphylococcus aureus [25]): 251188.6 CFU
- Activity [26]: Non-Toxic
- Activity (Staphylococcus aureus [27]): Active
- Activity (Staphylococcus aureus [28]): 5.7 log10CFU/ml
- Activity [29]: Non-Toxic
- MIC (Staphylococcus aureus [30]): 0.5 µg/mL
- MIC (Enterococcus faecalis): 1 µg/mL
- Activity (Staphylococcus aureus [31]): Active
- Activity [32]: Non-Toxic
- Activity (Staphylococcus aureus [33]): Active
- fold change (FC) (Staphylococcus aureus [34]): 3
- Activity (Staphylococcus aureus [35]): Active
- Activity (Staphylococcus aureus [36]): Active
- Activity (Staphylococcus aureus [37]): Active
- MIC [38]: 2 µg/mL
- Activity [39]: Non-Toxic
- Activity [40]: Non-Toxic
- MIC (Escherichia coli [41]): 1 µg/mL
- Activity (Staphylococcus aureus [42]): Active

From ChEMBL document CHEMBL6071176, “Development of Phloroglucinol-Linked Tris-Quaternary Ammonium Salt Antimicrobial Peptide Mimics with Low Cytotoxicity and Broad-Spectrum Antibacterial Activity” (J Med Chem, 2024)
